Data taken from US20160115200A1, “New Use for JNK Inhibitor Molecules for Treatment of Various Diseases” (XIGEN INFLAMMATION LTD., priority 2013, published 2016).
Square brackets hold non-standard residues; d marks the D form. Peptide text beside a SMILES is read from it.

System: Primary Rat Whole Blood Cells
Assay: Cytokine release in rat whole blood stimulated with LPS or PMA+ionomycin
Format: cell-based
Settings: 10 μM inhibitor, PMA+ionomycin 25/500, 50/750, 50/1000 ng/mL, 4 h
Method: Given are the results for the control, 1 μM of SEQ ID NO: 172, 3 μM of SEQ ID NO: 172, and 10 μM of SEQ ID NO: 172 at different levels of LPS (ng/ml).
FIG. 17 Dose dependent inhibition of IL-2 release in rat whole blood stimulated with PMA+ionomycin. JNK inhibitor with SEQ ID NO: 172 was added at three different concentrations, namely 1, 3 and 10 μM 1 h before stimulation with PMA+ionomycin. Three doses of activators were added (25/500 ng/mL, 50/750 ng/mL and 50/1000 ng/mL) for 4 h. IL-2 release was assessed in supernatant.
Whole blood is collected from anesthetized rat or human healthy volunteers using a venipuncture connected to a pre-labeled vacuum tube containing sodium citrate. Tubes are gently mixed by inversion 7-8 times; and are then kept at RT until stimulation. JNK inhibitor of SEQ ID NO: 172 is prepared 6 times concentrated in PBS, and 30 μl/well of mix is added into 96-well plate. Whole blood is diluted by 1:2 in PBS and 120 μl of diluted blood is added in each well where either PBS alone or JNK inhibitor of SEQ ID NO: 172 has been previously added. Whole blood is incubated at 37° C.; 85 rpm (Stuart Orbital incubator SI500) for 60 min. […] Cytokine (IL-6, IL-2, IFNγ and TNFα) were then measured using standard Elisa kits (e.g. from R&D Systems: DuoSet Elisas; or from BD Biosciences: BD Opteia Set Elisa). Results are expressed as pg/ml of supernatant of the measured cytokine. […]

## CC(C)C[C@H](NC(=O)[C@H](CC(N)=O)NC(=O)[C@H](CC(C)C)NC(=O)[C@@H](NC(=O)[C@@H](C)NC(=O)[C@@H]1CCCN1C(=O)[C@H](CCCNC(=N)N)NC(=O)[C@@H](CCCCN)NC(=O)[C@@H]1CCCN1C(=O)[C@H](CCCNC(=N)N)NC(=O)[C@@H](CCCNC(=N)N)NC(=O)[C@H](CCCNC(=N)N)NC(=O)[C@H](CCCNC(=N)N)NC(=O)[C@H](CCC(N)=O)NC(=O)[C@@H](CCCNC(=N)N)NC(=O)[C@H](CCCNC(=N)N)NC(=O)[C@H](CCCCN)NC(=O)[C@H](CCCCN)NC(=O)[C@H](N)CCCNC(=N)N)[C@@H](C)O)C(=O)N[C@H](Cc1ccccc1)C(N)=O [SEQ ID NO: 172, rKKRrQRRrRPkRPaTLNLf] (H-[dR]KKR[dR]QRR[dR]RP[dK]RP[dA]TLNL[dF]-NH2)
  PMA-iono-induced IL-2 release: efficiently reduce
